From PubChem BioAssay (NCI)
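Test compounds were applied to cells in 96-well plates for 48 hours at 5 doses. At the TGI there is no net growth.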

Key:
Assay in all cases: growth of human tumour cells (NCI), 48 h
[1] = tested on: HT29 colon
[2] = tested on: SW-620 colon
[3] = tested on: IGROV1 ovarian
[4] = tested on: SNB-19 CNS
[5] = tested on: SF-539 CNS
[6] = tested on: DLD-1 colon
[7] = tested on: A498 renal
[8] = tested on: M19-MEL melanoma
[9] = tested on: XF 498 CNS
[10] = tested on: SNB-75 CNS
[11] = tested on: UACC-62 melanoma
[12] = tested on: HCT-116 colon
[13] = tested on: COLO 205 colon
[14] = tested on: SR leukemia
[15] = tested on: UACC-257 melanoma
[16] = tested on: TK-10 renal
[17] = tested on: CAKI-1 renal
[18] = tested on: LOX IMVI melanoma
[19] = tested on: SF-268 CNS
[20] = tested on: DMS 273 small cell lung
[21] = tested on: OVCAR-4 ovarian
[22] = tested on: OVCAR-3 ovarian
[23] = tested on: KM20L2 colon
[24] = tested on: SK-MEL-2 melanoma
[25] = tested on: OVCAR-5 ovarian
[26] = tested on: HL-60(TB) leukemia
[27] = tested on: EKVX NSCLC
[28] = tested on: K-562 leukemia
[29] = tested on: RPMI-8226 leukemia
[30] = tested on: MOLT-4 leukemia
[31] = tested on: SNB-78 CNS
[32] = tested on: ACHN renal
[33] = tested on: U251 CNS
[34] = tested on: NCI-H226 lung
[35] = tested on: SK-MEL-5 melanoma
[36] = tested on: NCI-H460 lung
[37] = tested on: HOP-62 NSCLC
[38] = tested on: CCRF-CEM leukemia
[39] = tested on: UO-31 renal
[40] = tested on: HCC-2998 colon
[41] = tested on: HOP-92 NSCLC
[42] = tested on: SN12C renal
[43] = tested on: SK-MEL-28 melanoma
[44] = tested on: RXF-631 renal
[45] = tested on: NCI-H23 lung
[46] = tested on: SK-OV-3 ovarian
[47] = tested on: MALME-3M melanoma
[48] = tested on: M14 melanoma
[49] = tested on: SF-295 CNS
[50] = tested on: KM12 colon
[51] = tested on: DMS 114 small cell lung
[52] = tested on: A549 NSCLC
[53] = tested on: NCI-H522 lung
[54] = tested on: LXFL 529 NSCLC
[55] = tested on: RXF 393 renal
[56] = tested on: OVCAR-8 ovarian
[57] = tested on: HCT-15 colon
[58] = tested on: HOP-18 NSCLC
[59] = tested on: 786-0 renal

Measured: TGI

O=[N+]([O-])c1nc(-c2ccccn2)[nH]c1[N+](=O)[O-]
38.9 µM: [51]
85.7 µM: [11]
49 µM: [12]
37.1 µM: [53]
not listed: [56] | [57] | [58] | [59]
> 100 µM: all other assays above

Cc1cn(Cc2ccccc2CCO)c(=S)[nH]c1=O
not listed: [6] | [12] | [14] | [31] | [40]
> 100 µM: all other assays above
